We go through eleven compounds from US5834012A, “Lipid complexed topoisomerase I inhibitors” (Perez-Soler; Roman, priority 1995, dated 1998).

The nature of data set [1]: Complexation with CPT / liposome formation by fluorescent microscopy. In kind it is physicochemical. The text has this: (§1) In order to prepare LC-CPT (a liposomal preparation containing CPT within spherical lipid vesicles) various individual lipids were screened for complexation with CPT. […] CPT crystals and lipid/CPT complexes of >0.4 microns can be visualized under a fluorescent microscope (since CPT fluoresces due to its rigid ring structure). […] Therefore, the better a lipid complexes with CPT the less CPT crystals are formed, and the more lipid/CPT complexes are formed.
(§2) Drug/lipid Complex Preparation. CPT was mixed in ratios of from 2:1 to 25:1 w/w lipid:drug in chloroform-methanol (8:1). For studies where CPT was radiolabeled, approximately 0.02 uCi/ml [^3 H] CPT was added to the preparation. Trace quantities of ^14 C labeled cholesterol was added to samples requiring lipid labeling. For small samples, the lipids were dried in 12×75 mm culture tubes under a stream of nitrogen gas. For large samples, a rotavapor (Buchi RE140, Switzerland) was used to dry lipids in a 100 to 1000 ml round bottom flasks. The lipophilic film was then vortexed in a Touch Mixer Model 231 (Fisher Scientific, Fair Lawn, N.J., U.S.A.) for one minute in sterile phosphate buffered saline (pH 7.4). For liposomal CPT 0.9% Nace was used. Preparations were screened for lipid entrapment by light and fluorescent microscopy (Nikon Labophot-2, Japan).
To increase the cytotoxic effects of LC-CPT relative to CPT, lipid must surround (encapsulate) the CPT to protect it from inactivation. Since the cytotoxicity of LC-CPT was similar to that of the free drug, the CPT was not encapsulated by the lipid (DO-NGPE). Encapsulation (and concomitant protection from inactivation) can be accomplished by surrounding CPT in a liposome (a unilamellar or multilamellar structure). […] Therefore, LC-CPT appears to only contain enough lipid to form micellar aggregates of CPT or to form a hydrophobic scaffold for CPT-CPT aggregation.
The inventors attempted to protect the CPT from inactivation by surrounding the existing DO-NGPE:CPT complex with a liposome (Table 3) or by adding another lipid to DO-NGPE to form a liposome. […]

The nature of data set [2]: Lipids screened for complexation with CPT (fluorescent microscopy; % bound). It is filed as physicochemical. The note with it: for % bound to CPT / Crystals: Table 1; for Crystals: lipid alone with CPT, fluorescent microscopy.
Excerpt: as §1
as §2, with “The lipophilic film was then vortexed in a Touch Mixer Model 231 (Fisher Scientific, Fair Lawn, N.J., U.S.A.) for one minute in sterile phosphate buffered saline (pH 7.4).” left out, “Japan). […]” for “Japan).”
Lipids of varying carbon chain length, charge, and saturation, alone or in different combinations, were empirically screened for their ability to form liposomes incorporating CPT by fluorescent microscopy.

For data set [3] the following is noted: Hertzberg et al., 1989; cited from earlier work.
In data set [4] the test system is human tumors. The note with it: cited from earlier work.
A short description of data set [5]: Chromatographic evaluation of CPT in the liposome fraction. It is filed as physicochemical. The note with it: lipid used alone. As for the experimental part:
Chromatography. A 30 cm agarose 0.5M column is used to separate liposome-bound drug from free CPT. PBS is used as the mobile phase for all preparations. Twenty samples were collected in 3 mL aliquots for a total of 60 mLs. Fluorescence and scintigraphy were used to detect encapsulated and free drug. Fluorimetry. Aliquots of 20 μl from each collection tube were transferred to cuvets containing 2 ml methanol. Fluorimetry was performed as described by Hart et al. (Hart et al., 1969). Fluorescence was measured at an excitation wavelength of 370 nm and emission wavelength of 434 nm (Perkin-Elmer MPF44A, Norwalk, Conn., U.S.A.). Two ml of ethanol was used as a control for machine calibration.
Chromatographic evaluation confirmed that <5% of CPT was incorporated in the liposome fraction of the preparation, the rest presumably being solubilized or in small particles not detectable by fluorescence microscopy.
These observation led the present inventors to other negatively charged lipids. […] Chromatographic evaluation of these preparations confirmed again that <5% of CPT eluted with the liposome fraction, the rest of the drug eluting later in a large number of consecutive fractions. By differential centrifugation, the lipid-binding efficiency of cardiolipin was about 67% and that of DO-NGPE 97%. DO-NGPE-CPT was, therefore, selected for further biological and pharmacological studies.

Counter-ions that a name gives are not always drawn. Some results are limits rather than exact numbers.

For the compound `CCCCCCCC/C=C\CCCCCCCC(=O)OCC(C[N+](C)(C)C)OC(=O)CCCCCCC/C=C\CCCCCCCC` (stereo not shown) [DOTAP, 1,2-Dioleoyl-3-Trimethylammonium-Propane], the “complexation with CPT / liposome formation / CPT crystals (in words)” value in data set [1] was “complex well with CPT”.

As to `CCCCCC(=O)OC[C@H](COP(=O)([O-])OCC[N+](C)(C)C)OC(=O)CCCCC` [Dicaproyl PC], in data set [2], the “% bound to CPT” value is listed as < 5% and the Crystals result was “yes”.

As to `CCCCCCCCCCCCCCCCCC(=O)OC[C@H](COP(=O)([O-])OCC[N+](C)(C)C)OC(=O)CCCCCCCCCCCCCCCCC` [Distearoyl PC], in data set [2], the “% bound to CPT” value is < 5% and the Crystals entry is reported as “yes”.

Regarding `CCCCCCCC/C=C\CCCCCCCC(=O)OC[C@H](COP(=O)(O)OCCN)OC(=O)CCCCCCC/C=C\CCCCCCCC` [DOPE, 1,2-Dioleoyl-sn-Glycero-3-Phosphoethanolamine], in data set [1], the “complexation with CPT / liposome formation / CPT crystals (in words)” value is given as “complex well with CPT”.

Turning to `CC[C@@](O)(C(=O)O)c1cc2n(c(=O)c1CO)Cc1cc3ccccc3nc1-2` [sodium salt of CPT, camptothecin sodium], the “activity relative to closed lactone ring base (in words)” value in data set [3] is given as “significantly less active than the lipophilic base compound”. The dose-limiting toxicity entry in data set [4] (clinical trials, early 1970's) was “dose-limiting leukopenia, cystitis, and gastroenteritis”. The “clinical antitumor activity (in words)” value in data set [4] (intestinal tumors metastatic to the liver) is listed as “demonstrated activity in human tumors”.

With `CCCCCCCC/C=C\CCCCCCCC(=O)O[C@H](COC(=O)CCCCCCCCCCCCCCCCC)COP(=O)([O-])OCC[N+](C)(C)C` [1-Stearoyl, 2-Oleoyl PC], in data set [2], the “% bound to CPT” value is listed as < 5% and the Crystals result is “yes”.

As to `CCCCCCCCCCCCCCCCCC(=O)OC[C@H](COP(=O)([O-])OCC[N+](C)(C)C)OC(=O)CCCCCCCCCCCCC` [1-Stearoyl, 2-Myristdyl PC], in data set [2], the “% bound to CPT” value is < 5% and the Crystals entry is on record as “yes”.

On to `CCCCCCCCCCCCCC(=O)OC[C@H](COP(=O)(O)OCC(O)CO)OC(=O)CCCCCCCCCCCCC` (mixture of isomers) [Dimyristoyl PG, 1,2-Dimyristoyl-sn-Glycero-3-[Phospho-rac-(1-glycerol)]], for which, in data set [2], the “% bound to CPT” value is listed as < 5% and the Crystals entry is “yes”.

Consider `CCCCCCCC/C=C\CCCCCCCC(=O)OC[C@H](COP(=O)(O)OCC(O)CO)OC(=O)CCCCCCC/C=C\CCCCCCCC` (mixture of isomers) [Dioleoyl PG, 1,2-Dioleoyl-sn-Glycero-3-[Phospho-rac-(1-glycerol)]], for which, in data set [2], the “interaction with CPT (in words)” value is “lack of drug crystallization”, the “% bound to CPT” value is reported as < 5% and the Crystals entry is “no”. For the same compound, in data set [5], the “CPT incorporated in / eluted with the liposome fraction” value is listed as < 5%.

As to `CCCCCCCCCCCCCC(=O)OC[C@H](COP(=O)([O-])OCC[N+](C)(C)C)OC(=O)CCCCCCCCCCCCC` [Dimyristoyl PC, 1,2-Dimyristoyl-sn-Glycero-3-Phosphocholine], in data set [2], the “% bound to CPT” value is recorded as < 5% and the Crystals entry is on record as “yes”.

For the compound `CCCCCCCC/C=C/CCCCCCCC(=O)OC[C@H](COP(=O)([O-])OCC[N+](C)(C)C)OC(=O)CCCCCCC/C=C/CCCCCCCC` [Dielaidoyl PC], the “complexation with CPT / liposome formation / CPT crystals (in words)” value in data set [1] is recorded as “complex well with CPT”.
